Results from a melting point compilation (Tetko et al.).

Row | SMILES | melting point [°C]
1 | CC1(C)C2CCC13CS(=O)(=O)N[C@H]3C2 (some centres not stated) | 181 to 185
2 | CCCCCC(N)P(=O)(O)O (configuration not stated) | 265 to 268
3 | O=C1CCSc2ccc(F)cc21 | 94 to 95
4 | COc1ccc(OC)c(C(=O)CBr)c1 | 83 to 88
5 | CCCCCCCCCCCCCCCCCC1CCCCC1 | 38
6 | CCSc1sc(C#N)c2c1C(=O)CC(C)(C)C2 | 150 to 153
7 | C1CC12CC2 | -135
8 | Cc1cc(C)c(N)c(I)c1 | 65
9 | FC(F)C(F)F | -89
10 | COC(=O)C1(C(=O)OC)C=C(OC)c2ccccc21 | 114 to 115
11 | OCC(O)C(O)C(OC1OC(CO)C(O)C(O)C1O)C(O)CO (configuration not stated) | 151
12 | FC(Cl)(Cl)C(Cl)Cl | -82.6
13 | Nc1c(I)cc(I)cc1C(=O)O | 241 to 243
14 | COc1ccc2c3c([nH]c2c1)C1CC2C(CC(O)C(OC)C2C(=O)O)CN1CC3 (configuration not stated) | 242
15 | COc1cc(F)c(C#N)cc1F | 91
16 | CCCCCCCOC(C)=O | -50.2
17 | O=C(O)Cc1c[nH]c2ccccc12 | 169
18 | CC(=O)OC1CCC2C3CCC4CC(C(C)=O)=CCC4(C)C3CCC12C (configuration not stated) | 115 to 140
19 | CC/C=C/CCO | -61.5
20 | O=C(O)C=CC=Cc1ccc2c(c1)OCO2 | 215
21 | OCc1c(Br)c(Br)c(Br)c(Br)c1Br | 264 to 265

Row | SMILES | melting point [°C]
22 | Clc1ccc(C(Cl)(Cl)Cl)cc1 | 5.8
23 | O=C(O)CC1CC(=O)OC1C(=O)O (configuration not stated) | 159
24 | Cn1ncc2c(NNC3=CC(=O)c4ccccc4C3=O)ncnc21 | 226
25 | C=CCC1(O)CCC2C3CCC4=CCCCC4C3CCC21C (configuration not stated) | 80
26 | CC(=O)c1cc(-c2ccc(Cl)c(Cl)c2)no1 | 130 to 132
27 | O=[N+]([O-])CC(Nc1ccccc1)c1cccc(C(C[N+](=O)[O-])Nc2ccccc2)c1 (configuration not stated) | 127
28 | O=C(OC(Cl)(Cl)Cl)C(Cl)(Cl)Cl | 34
29 | Cc1cc(Br)c[nH]c1=O | 171 to 175
30 | CCOC(=O)c1ccccc1N=C=O | 29
31 | Cc1ccc(C#N)cn1 | 85
32 | COC(=O)[C@]1(O)CC2=C(c3c1cc(OC)nc3Cl)N(C)CCC2 | 153
33 | O=C(O)C1CCC1 | -2
34 | CCCNC(C)C(=O)Nc1ccccc1C (configuration not stated) | 37.5
35 | O=C1Nc2c(C(=O)O)cccc2C1=O | 268 to 275
36 | CCCCCCSc1nnc(S)s1 | 75
37 | COc1ccc(-c2cc(C(F)(F)F)[nH]n2)cc1OC | 150 to 156
38 | O=C(O)C=Cc1c(F)c(F)c(F)c(F)c1F | 153
39 | OCCCCCCCCCCCl | 12.5
40 | CC(C1=CCC(C(=O)O)C(C)(C)O1)(c1ccccc1)c1ccccc1 (configuration not stated) | 145
41 | OCC1(c2ccc(Cl)cc2)CC1 | 50 to 54
42 | CCCC(=O)N(CSP(=S)(OC)OC)c1ccccc1Cl | 42

The remaining lines, values ahead:

Row | melting point [°C] | SMILES
43 | 180 | Cc1cc(C(N)=O)ccc1Br
44 | 133 | CCOC(=O)Oc1c(-c2ccccc2)n(C(C)=O)c2cc([N+](=O)[O-])ccc12
45 | 139 | O=C(COc1ccc(Cl)cc1)Nc1nc2ccccc2s1
46 | 169 | ON=Cc1ccc2ccccc2c1
47 | 56.5 | Cc1cc2ccccc2n1C
48 | 220 | COc1ccc(-c2nnc3n2NC(c2ccccc2O)S3)cc1 (configuration not stated)
49 | 131 to 132 | CON=C(c1cc2ccccc2o1)c1cc2ccccc2o1
50 | 100 | O=C1OC(=Cc2ccccc2)c2ccccc21
51 | 45.5 | CCN(CC)c1ccc(Cl)cc1
52 | 231 to 233 | O=Cc1cccc(-c2ccc(C(=O)O)cc2)c1
53 | 99 | Cn1c(-c2ccccc2)cc2ccccc21
54 | < 20 | Brc1cccc(Oc2ccccc2)c1
55 | 123 to 125 | Cc1nn(-c2ccccc2)nc1C(=O)NN
56 | 37 to 39 | COc1ccccc1C(C)O (racemic)
57 | 141 to 143 | O=C(C(=O)c1ccc([N+](=O)[O-])cc1)c1ccccc1
58 | 86 | Cc1sc(-c2ccccn2)nc1-c1ccccc1
59 | 21 | CCOc1ccc(Cl)cc1
60 | 109 | CC(=O)Oc1nc(CCc2ccccc2)nn1-c1ccccc1
61 | 82 to 83 | Cc1ccc2cccc-2cc1
62 | 85 to 86 | Brc1cc(Br)c(Oc2ccccc2)c(Br)c1
63 | 174 to 175 | Cc1cc(C(=O)O)ccc1O
64 | 192 to 196 | CC(=O)c1ccc(-c2ccc(C(C)=O)cc2)cc1
65 | 198 to 200 | CCOc1ccc(-c2nnc3n2NC(c2ccc(OC)cc2)S3)cc1 (configuration not stated)
66 | 74.5 | CCCCC(=O)c1ccc(N)cc1
67 | 56.5 | Cc1cc(O)cc(Br)c1
